Patent publication US20140275257A1, “N-ACETYL CYSTEINE COMPOSITIONS IN THE TREATMENT OF SYSTEMIC LUPUS ERYTHEMATOSUS” (Foundation for the State University of New York, priority 2013, published 2014)

How the values were obtained:
FoxP3 = FoxP3 expression in T-cell subsets by flow cytometry; type: in vivo, human
Description: Foxp3 expression was measured in permeabilized cells using Alexa-647-conjugated antibody from BioLegend (San Diego, Calif.; cat No 320014). Up to 11 parameters were recorded simultaneously using a Becton Dickinson LSRII flow cytometer equipped with 20 mW solid-state Nd-YAG (emission at 355 nm), 20 mW argon (emission at 488 nm), 10 mW diode pumped solid state yellow-green (emission 561 nm) and 16 mW heliumneon lasers (emission at 634 nm). Each patient's cells were processed and analyzed in parallel with a matched control. […] FIG. 5A: FoxP3 expression in CD4^+/CD25^+ and CD8^+/CD25^+ T cell subsets of lupus and control donors matched for age, gender, and ethnicity by flow cytometry. Red and blue values indicate percentage of FoxP3^+ cells in lupus and control donors, respectively. FIG. 5B: Cumulative analysis of FoxP3 expression in CD25^+ T-cell subsets in lupus subjects and matched controls. p values reflect comparison with two-tailed unpaired t-test. FIG. 5C: Effect of NAC on Foxp3 expression in CD25^+ T cell subsets of lupus patients exposed to all doses considered together. p values reflect comparison with two-tailed paired t-test.

[1] = system: idiopathic pulmonary fibrosis patients; settings: "high-dose" oral NAC (1.8 g/day); Demedts et al. (2005); cited from earlier work
[2] = system: murine lupus (female NZB×NZW F1 mouse model); settings: Suwannaroj et al. (2001); cited from earlier work
mTOR [3] = test: mTOR activity by phosphorylation of S6 ribosomal protein (pS6-RP) in T-cell subsets; type: in vivo, human; settings: for pS6-RPhi T cells in the DN T-cell compartment: baseline 22.5±3.7%
Description: mTOR activity was assessed by phosphorylation of its downstream substrate S6 ribosomal protein (pS6-RP) using a monoclonal antibody to pS6-RP (Cell Signaling; Beverly, Mass.; Cat. No. 4851) in cells permeabilized with Cytofix/CytopermPlus (BD Biosciences). […] FIG. 4A: Assessment of pS6-RP in CD3^+, CD4^+, CD8^+, and DN T cells from control (blue histograms) and lupus donors (red histograms). Blue/red values show the percentage of cell populations with increased mTOR activity in control and lupus T-cell subsets, respectively. FIG. 4B: Cumulative analysis of mTOR activity in T-cell subsets of all lupus patients relative to all healthy controls. Values represent mean±SEM of cell populations with increased mTOR activity. p values reflect comparison of lupus and healthy donors with unpaired two-tailed t-test before treatment. FIG. 4C: Effect of NAC on mTOR activity measured by the prevalence of pS6-RP^hi T cells in lupus patients exposed to all doses considered together. p values reflect comparison to pre-treatment visit 1 using two-tailed paired t-test. FIG. 4D: Effect of NAC on CD3/CD28-induced mTOR activity in T cell subsets of lupus patients exposed to all doses considered together.

SLE patients = test: SLE Disease Activity Index (SLEDAI) in NAC pilot study; type: in vivo, human
Text: SLEDAI offers an assessment tool for assessing disease activity in SLE. Twenty-four features that are attributed to lupus are listed, with a weighted score given to any one that is present. The more serious manifestations (such as renal, neurologic, and vasculitis) are weighted more than others (such as cutaneous manifestations). The maximum possible score is 105. (Lam, G. K. W. and Petri, M., “Assessment of systemic lupus erthematosus,” Clin. Exp. Rheumatol., 23 (Supp. 39): S120-S132 (2005)).
A complete physical examination of the cardiovascular, respiratory, gastrointestinal, musculoskeletal, neurological systems, skin, head, neck, sinuses, nasal and oral cavities were performed at each visit. SLE disease activity was assessed by using the British Isles Lupus Assessment Group (BILAG) (Isenberg, D. A. et al., “BILAG 2004. Development and initial validation of an updated version of the British Isles Lupus Assessment Group's disease activity index for patients with systemic lupus erythematosus,” Rheumatology 44(7): 902-906 (2005)) and SLE Disease Activity Index (SLEDAI) (Bombardier, C. et al., “Derivation of the SLEDAI. A disease activity index for lupus patients,” Arth. Rheum., 35: 630-640 (1992)). The concurrent use and dosage of prednisone and other medications were documented.
Lupus disease activity was measured by SLEDAI and BILAG and fatigue was evaluated by FAC at baseline (visit 1) as well as monthly during a 3-month intervention (visits 2-4) and after a 1-month washout period (visit 5).
Overall clinical effectiveness of NAC relative to placebo was analyzed with multilevel modeling as implemented in the STATA routine XTMIXED (from StataCorp, College Station, Tex.), with the three nested levels being drug group, subject within drug group and study visit within subject. All models included fixed effects for drug group, study visit and the drug group by study visit interaction along with random intercepts at each design level. […] The reduction in lupus disease activity SLEDAI scores was greater for the NAC than placebo group, as indicated by a significant visit by drug interaction (z=−2.14, p=0.033). The reduction in BILAG scores was also greater for NAC than placebo group. The overall effect was statistically significant as indicated by a significant visit by drug interaction (z=−2.62, p=0.009). Two tailed paired t-test was used to assess the effects of placebo and of each and all NAC doses on clinical indices and biomarkers recorded on visits 2-5 relative to visit 1; p<0.05 was considered significant. Patients and controls were compared with two-tailed unpaired t-test.

DN T cells = test: T-cell subset analysis by flow cytometry (DN T cells); type: in vivo, human; settings: after 3 months; baseline 6.2±0.5%; p=0.043
Description: Unstimulated cells and cells stimulated with CD3/CD28 for 16 h were examined and cell death pathway selection in T cells was measured by concurrent staining with annexin V-Alexa 647 and propidium iodide (PrI) as well as cell type-specific antigens. T-cell subsets were analyzed by staining with antibodies to CD4, CD8, and CD25. B cells were identified by CD 19 staining

mTOR [4] = target: mTOR (Homo sapiens, UniProt P42345); settings: O'Loghlen et al. (2006); cited from earlier work

CC(=O)N[C@@H](CS)C(=O)O [NAC, N-acetyl-L-cysteine]
CD4+/CD25+/FoxP3+ T cells (FoxP3; 4.8 g/day NAC, after 2 months, baseline 3.2±0.6%, p=0.018): 5.2±0.9%
FoxP3 expression in CD25+ DN T cells (FoxP3; after 2-month NAC treatment, baseline 1.29±0.23%, p=0.0160): 2.24±0.38%
percentage of FoxP3+ cells within the CD4+/CD25+ T-cell compartment (FoxP3; all NAC-treated patients, p=0.045): increased
disease severity in idiopathic pulmonary fibrosis [1]: diminished disease severity
outcome of murine lupus in vivo [2]: improves the outcome
pS6-RPhi T cells in the DN T-cell compartment (mTOR [3]; after 2 months, p=0.0104): 16.9±2.5%
pS6-RPhi T cells in the DN T-cell compartment (mTOR [3]; after 3 months, p=0.0095): 16.4±2.4%
pS6-RPhi T cells in the DN T-cell compartment (mTOR [3]; after 4 months, p=0.0009): 12.1±2.4%
CD3/CD28-induced mTOR activation (mTOR [3]; all T cells after 2 months and 3 months, rebounded after washout): diminished
patients with significant improvement (SLEDAI) (SLE patients; Dose 1 group, placebo 2 of 9): 3 of 9
patients with significant improvement (SLEDAI) (SLE patients; Dose 2 group, placebo 2 of 9): 4 of 9
patients with significant improvement (SLEDAI) (SLE patients; Dose 3 group, improvements of SLEDAI of 3 or more, p=0.0406 relative to placebo): 5 of 6
effect on SLE disease activity, SLEDAI (SLE patients; NAC dose 1 (1.2 g/day)): did not influence
SLEDAI (SLE patients; NAC doses 2 and 3 combined, visit 2 (1 month), baseline 5.78, p=0.0007): 3.6
SLEDAI (SLE patients; NAC doses 2 and 3 combined, visit 3 (2 months), baseline 5.78, p=0.0009): 4.0
SLEDAI (SLE patients; NAC doses 2 and 3 combined, visit 4 (3 months), baseline 5.78, p=0.0030): 4.9
SLEDAI (SLE patients; NAC doses 2 and 3 combined, visit 5 (after 1 month washout), baseline 5.78, p=0.0046): 4.4
SLEDAI (SLE patients; all patients treated with NAC, after 1-month (visit 2), baseline 5.3, p=0.0013): 3.5
SLEDAI (SLE patients; all patients treated with NAC, after 2-month treatment (visit 3), baseline 5.3, p=0.048): 3.7
reduction in SLEDAI relative to placebo (multilevel modeling) (SLE patients; visit by drug interaction, XTMIXED z=−2.14, p=0.033): greater in the NAC than placebo group
DN T-cell frequency (DN T cells): 5.3±0.5%
effect on mTOR in vitro (mTOR [4]): inhibits
